Data published in ChEMBL document CHEMBL3885861, “Open TG-GATES”.

Species: Rattus norvegicus
Assay: Open TG-GATES - Regimen: Daily Repeat
Type: toxicity, organism-based, Sprague-Dawley
Design: regimen Daily Repeat, gender Male, age 6 weeks
Settings: in vivo, po, 10 mg/kg, […], route gavage, dose level Low; for KIDNEY_L / KIDNEY_R / KIDNEY_TOTAL: tissue Kidney; for LIVER: tissue Liver; for A/G / ALP / ALT / AST / BUN / CRE / Ca / Cl / DBIL / GLC / IP / K / LDH / Na / PL / RALB / TBIL / TC / TG / TP / gamma-GTP: tissue Plasma

`CN(C)CCN(Cc1cccs1)c1ccccn1` was tested, and the Lym (tissue Blood, time 28 day) was 78.8%, the MCH (tissue Blood, time 28 day) was 20.2 pg and the MCHC (tissue Blood, time 28 day) was 34.5%. The MCV (tissue Blood, time 28 day) was 58.6 fL, the Mono (tissue Blood, time 28 day) was 2.2% and the Neu (tissue Blood, time 28 day) was 17.2%. It also gave a PT (tissue Blood, time 28 day) of 15.8 s, a Plat (tissue Blood, time 28 day) of 96.3 x10_4/uL and an RBC (tissue Blood, time 28 day) of 758 x10_4/ul. The Ret (tissue Blood, time 28 day) was 2.6%, the WBC (tissue Blood, time 28 day) was 105 x10_2/uL and the KIDNEY_L (time 7 day) was 1 g. For the same compound, the KIDNEY_R (time 7 day) was 1 g, the KIDNEY_TOTAL (time 7 day) was 2 g and the KIDNEY_L (time 14 day) was 1.1 g. It also gave a KIDNEY_R (time 14 day) of 1.2 g, a KIDNEY_TOTAL (time 14 day) of 2.3 g and a KIDNEY_L (time 28 day) of 1.2 g. The KIDNEY_R (time 28 day) was 1.3 g, the KIDNEY_TOTAL (time 28 day) was 2.5 g and the LIVER (time 7 day) was 10.6 g. The LIVER (time 14 day) was 12.3 g, the LIVER (time 28 day) was 14.3 g and the A/G (time 7 day) was 1.1. It also gave an ALP (time 7 day) of 1638.2 IU/L, an ALT (time 7 day) of 35.6 IU/L and an AST (time 7 day) of 66.6 IU/L. It also gave a BUN (time 7 day) of 18.6 mg/dL, a CRE (time 7 day) of 0.2 mg/dL and a Ca (time 7 day) of 10.4 mg/dL. For the same compound, the Cl (time 7 day) was 108.8 meq/L, the DBIL (time 7 day) was 0 mg/dL and the GLC (time 7 day) was 174.6 mg/dL. The IP (time 7 day) was 6.8 mg/dL, the K (time 7 day) was 4.7 meq/L and the LDH (time 7 day) was 183.8 IU/L. For the same compound, the Na (time 7 day) was 144.2 meq/L, the PL (time 7 day) was 129.6 mg/dL and the RALB (time 7 day) was 3 g/dL. For the same compound, the TBIL (time 7 day) was 0.008 mg/dL, the TC (time 7 day) was 63.2 mg/dL and the TG (time 7 day) was 109.2 mg/dL. The TP (time 7 day) was 5.7 g/dL, the gamma-GTP (time 7 day) was 1 IU/L and the A/G (time 14 day) was 1.1. The ALP (time 14 day) was 1409 IU/L, the ALT (time 14 day) was 39.4 IU/L and the AST (time 14 day) was 68.6 IU/L. It also gave a BUN (time 14 day) of 17.6 mg/dL, a CRE (time 14 day) of 0.2 mg/dL and a Ca (time 14 day) of 10.2 mg/dL. It also gave a Cl (time 14 day) of 108.2 meq/L, a DBIL (time 14 day) of 0.002 mg/dL and a GLC (time 14 day) of 175.4 mg/dL. For the same compound, the IP (time 14 day) was 6.7 mg/dL, the K (time 14 day) was 4.2 meq/L and the LDH (time 14 day) was 177.2 IU/L. The Na (time 14 day) was 143.2 meq/L, the PL (time 14 day) was 137.2 mg/dL and the RALB (time 14 day) was 2.9 g/dL. The TBIL (time 14 day) was 0.012 mg/dL, the TC (time 14 day) was 71.8 mg/dL and the TG (time 14 day) was 88.8 mg/dL. It also gave a TP (time 14 day) of 5.6 g/dL, a gamma-GTP (time 14 day) of 1 IU/L and an A/G (time 28 day) of 1.2. It also gave an ALP (time 28 day) of 1369.6 IU/L, an ALT (time 28 day) of 45.8 IU/L and an AST (time 28 day) of 73.4 IU/L. The BUN (time 28 day) was 20.4 mg/dL, the CRE (time 28 day) was 0.2 mg/dL and the Ca (time 28 day) was 10.3 mg/dL. The Cl (time 28 day) was 107.6 meq/L, the DBIL (time 28 day) was 0.004 mg/dL and the GLC (time 28 day) was 189 mg/dL. The IP (time 28 day) was 6.5 mg/dL, the K (time 28 day) was 3.9 meq/L and the LDH (time 28 day) was 183.6 IU/L. The Na (time 28 day) was 143.2 meq/L, the PL (time 28 day) was 142.6 mg/dL and the RALB (time 28 day) was 3.2 g/dL. The TBIL (time 28 day) was 0.026 mg/dL, the TC (time 28 day) was 72.4 mg/dL and the TG (time 28 day) was 111 mg/dL. For the same compound, the TP (time 28 day) was 5.7 g/dL and the gamma-GTP (time 28 day) was 1.4 IU/L.
